# From patent US20190367448A1, “TREATMENT OF SLEEP-WAKE DISORDERS” (SK Biopharmaceuticals Co., Ltd., priority 2005, published 2019)
# Tested on: male adult Sprague Dawley rats
# Test: Sleep-wake organization in rats, polysomnographic recording (EEG, EOG, EMG, body movement) for 16 hours after acute i.p. administration
# Assay type: in vivo, rat
# Conditions: rats; for Duration (min) Active wake / Duration (min) Deep sleep / Duration (min) Light sleep / Duration (min) Passive wake / Duration (min) REM sleep / Duration (min) intermediate stage / ISWS/TST (%) / Latency (min) ISWS / Latency (min) REM sleep / Latency (min) dSWS / REMS/TST (%) / Shifts (number) Shift from ISWS to AW / Shifts (number) Shift from ISWS to PW / Shifts (number) Shift from REMS to AW / Shifts (number) Shift from REMS to PW / Shifts (number) Shift from dSWS to AW / Shifts (number) Shift from dSWS to PW / Total sleep time TST / dSWS/TST (%): 16 hours recording period; for change in number of active wakefulness epochs / change in number of deep sleep epochs / change in number of light sleep epochs / change in duration of active wakefulness / change in time spent in deep sleep / change in time spent in light sleep / change in number of REM sleep epochs / change in duration of REM sleep: 10 mg/kg
# [1] = highest dose tested, 16 hours recording
structure (smiles),measurement,setting,value
"COC(=O)[C@H]1[C@@H](OC(=O)c2ccccc2)C[C@@H]2CC[C@H]1N2C [Cocaine, cocaine]",Duration (min) Active wake,1 mg/kg i.p.,331.5 min
same,Duration (min) Deep sleep,1 mg/kg i.p.,162.9 min
same,Duration (min) Light sleep,1 mg/kg i.p.,293.2 min
same,Duration (min) Passive wake,1 mg/kg i.p.,69.8 min
same,Duration (min) REM sleep,1 mg/kg i.p.,84.2 min
same,Duration (min) intermediate stage,1 mg/kg i.p.,6.7 min
same,ISWS/TST (%),1 mg/kg i.p.,51.8 ± 4.5%
same,Latency (min) ISWS,1 mg/kg i.p.,69.9 ± 51.2 min
same,Latency (min) REM sleep,1 mg/kg i.p.,74.3 ± 12.1 min
same,Latency (min) dSWS,1 mg/kg i.p.,79.3 ± 26.7 min
same,REMS/TST (%),1 mg/kg i.p.,15.4 ± 0.9%
same,Shifts (number) Shift from ISWS to AW,1 mg/kg i.p.,184.1 number
same,Shifts (number) Shift from ISWS to PW,1 mg/kg i.p.,128.6 number
same,Shifts (number) Shift from REMS to AW,1 mg/kg i.p.,74.5 number
same,Shifts (number) Shift from REMS to PW,1 mg/kg i.p.,17.0 number
same,Shifts (number) Shift from dSWS to AW,1 mg/kg i.p.,10.1 number
same,Shifts (number) Shift from dSWS to PW,1 mg/kg i.p.,66.6 number
same,Total sleep time TST,1 mg/kg i.p.,547.0 ± 51.5 min
same,dSWS/TST (%),1 mg/kg i.p.,31.2 ± 4.8%
same,Duration (min) Active wake,3 mg/kg i.p.,324.8 min
same,Duration (min) Deep sleep,3 mg/kg i.p.,172.6 min
same,Duration (min) Light sleep,3 mg/kg i.p.,303.2 min
same,Duration (min) Passive wake,3 mg/kg i.p.,66.7 min
same,Duration (min) REM sleep,3 mg/kg i.p.,76.7 min
same,Duration (min) intermediate stage,3 mg/kg i.p.,5.7 min
same,ISWS/TST (%),3 mg/kg i.p.,53.8 ± 6.3%
same,Latency (min) ISWS,3 mg/kg i.p.,41.5 ± 9.2 min
same,Latency (min) REM sleep,3 mg/kg i.p.,112.0 ± 12.2 min
same,Latency (min) dSWS,3 mg/kg i.p.,68.6 ± 7.6 min
same,REMS/TST (%),3 mg/kg i.p.,13.8 ± 1.1%
same,Shifts (number) Shift from ISWS to AW,3 mg/kg i.p.,218.5 number
same,Shifts (number) Shift from ISWS to PW,3 mg/kg i.p.,142.2 number
same,Shifts (number) Shift from REMS to AW,3 mg/kg i.p.,56.0 number
same,Shifts (number) Shift from REMS to PW,3 mg/kg i.p.,10.7 number
same,Shifts (number) Shift from dSWS to AW,3 mg/kg i.p.,10.2 number
same,Shifts (number) Shift from dSWS to PW,3 mg/kg i.p.,64.5 number
same,Total sleep time TST,3 mg/kg i.p.,558.2 ± 21.2 min
same,dSWS/TST (%),3 mg/kg i.p.,31.4 ± 6.1%
same,Duration (min) Active wake,10 mg/kg i.p.,347.3 min
same,Duration (min) Deep sleep,10 mg/kg i.p.,171.9 min
same,Duration (min) Light sleep,10 mg/kg i.p.,294.6 min
same,Duration (min) Passive wake,10 mg/kg i.p.,55.0 min
same,Duration (min) REM sleep,10 mg/kg i.p.,74.7 min
same,Duration (min) intermediate stage,10 mg/kg i.p.,6.3 min
same,ISWS/TST (%),10 mg/kg i.p.,53.8 ± 4.0%
same,Latency (min) ISWS,10 mg/kg i.p.,101.8 ± 6.9 min
same,Latency (min) REM sleep,10 mg/kg i.p.,192.1 ± 18.5 min
same,Latency (min) dSWS,10 mg/kg i.p.,138.8 ± 8.7 min
same,REMS/TST (%),10 mg/kg i.p.,13.8 ± 1.5%
same,Shifts (number) Shift from ISWS to AW,10 mg/kg i.p.,201.2 number
same,Shifts (number) Shift from ISWS to PW,10 mg/kg i.p.,132.6 number
same,Shifts (number) Shift from REMS to AW,10 mg/kg i.p.,52.3 number
same,Shifts (number) Shift from REMS to PW,10 mg/kg i.p.,9.2 number
same,Shifts (number) Shift from dSWS to AW,10 mg/kg i.p.,10.4 number
same,Shifts (number) Shift from dSWS to PW,10 mg/kg i.p.,37.6 number
same,Total sleep time TST,10 mg/kg i.p.,547.6 ± 18.2 min
same,dSWS/TST (%),10 mg/kg i.p.,31.3 ± 4.2%
same,change in number of active wakefulness epochs,0.5 h,+111%
same,change in number of deep sleep epochs,0.5 h,−100%
same,change in number of light sleep epochs,0.5 h,−100%
same,change in duration of active wakefulness,0.5 h after treatment,+111%
same,change in time spent in deep sleep,0.5 h after treatment,90%
same,change in time spent in light sleep,0.5 h after treatment,−100%
same,change in number of REM sleep epochs,0.5 hr,−100%
same,change in duration of REM sleep,0.5 hr after administration,−100%
same,change in number of active wakefulness epochs,1 h,+500%
same,change in duration of active wakefulness,1 h after treatment,+500%
same,change in time spent in deep sleep,1 h after treatment,−100%
same,change in time spent in light sleep,1 h after treatment,−99%
same,change in number of REM sleep epochs,1 hr,−100%
same,change in number of deep sleep epochs,1 hr,−100%
same,change in number of light sleep epochs,1 hr,−99%
same,change in duration of REM sleep,1 hr after administration,−100%
same,change in number of deep sleep epochs,1.5 h,−100%
same,change in number of light sleep epochs,1.5 h,−87%
same,change in number of REM sleep epochs,1.5 hr,−100%
same,change in number of active wakefulness epochs,1.5 hr,+312%
same,change in duration of REM sleep,1.5 hr after administration,−100%
same,change in duration of active wakefulness,1.5 hr after treatment,+312%
same,change in time spent in deep sleep,1.5 hr after treatment,−99%
same,change in time spent in light sleep,1.5 hr after treatment,−87%
same,change in number of active wakefulness epochs,2 h,+119%
same,change in duration of active wakefulness,2 h after treatment,+120%
same,change in time spent in deep sleep,2 h after treatment,−70%
same,change in time spent in light sleep,2 h after treatment,−25%
same,change in number of REM sleep epochs,2 hr,−87%
same,change in number of deep sleep epochs,2 hr,−38%
same,change in number of light sleep epochs,2 hr,−22%
same,change in duration of REM sleep,2 hr after administration,−87%
same,change in number of REM sleep epochs,2.5 hr,−47%
same,change in number of active wakefulness epochs,2.5 hr,+166%
same,change in duration of REM sleep,2.5 hr after administration,−47%
same,change in duration of active wakefulness,2.5 hr after treatment,+166%
same,change in number of REM sleep epochs,3 hr,−78%
same,change in number of active wakefulness epochs,3 hr,+77%
same,change in duration of REM sleep,3 hr after administration,−78%
same,change in duration of active wakefulness,3 hr after treatment,+77%
same,decrease in total time spent in REM sleep,[1],−18%
same,increase in total duration of active wakefulness,[1],+14%
